The series can be described thus: gradient 5% acetonitrile 3 min, to 50% in 2 min, to 85% in 15 min, held 3 min, 100 µL/min. The note with it: column: Zorbax Extend-C18 2.1 x 50 mm; eluents: water / acetonitrile, 0.1% formic acid. Summed up:
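Over 3 months, pure standards in mixtures of ~100 molecules were run by HPLC coupled to a quadrupole time-of-flight mass spectrometer in positive and negative ionization mode. The column was a Zorbax Extend-C18 (2.1 × 50 mm, 1.8 μm) at 100 μL/min, eluted with water and acetonitrile each holding 0.1% formic acid, with 40 μL dead and 900 μL dwell volumes. Retention time was determined from adduct peaks chosen by software and checked manually.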
The compound `CN(C)C[C@@H]1CN(c2ncccn2)C[C@H]1NS(=O)(=O)Cc1ccc(F)cc1` came in with an RP-LC retention time of 590 s.

In the case of `Cc1ccc(OCc2nc(-c3cccc(-c4ccn[nH]4)c3)no2)cc1`, the RP-LC retention time amounted to 778 s. Turning to `Cc1ccc(N2CC(c3noc(-c4cc(C)cc(C)c4)n3)CC2=O)cc1` (stereo unspecified), the RP-LC retention time turned out to be 1200 s.

`Cc1ccc2nc(-c3ccc(Cl)cc3)c(Nc3ccc4c(c3)OCO4)n2c1` had an RP-LC retention time of 756 s. With `CNC(=O)c1c(C)c(-c2ccccc2)n(C)c1C`, the RP-LC retention time came to 812 s. The compound `Cc1cc(-c2cc(S(=O)(=O)NC3CCCCCC3)c(C)s2)n[nH]1` showed an RP-LC retention time of 917 s. In the case of `COC(=O)c1c(NCCc2c[nH]c3ccccc23)c2cccc(Cl)c2[nH]c1=O` it was 824 s; in that of `Cc1cccc(-c2noc(Cn3c(=O)n(-c4cccc(F)c4)c(=O)c4sccc43)n2)c1`, 1030 s; in that of `Cc1ccc(CN2CCN(C(=O)c3cccc4[nH]cc(CN5CCSCC5)c34)CC2)cc1`, 593 s.

Take `Cc1ccc(CN2CCC3(CC2)CC(O)(c2ccccn2)CCO3)o1` (stereo unspecified): the RP-LC retention time was determined as 595 s. As to `Cc1csc(-c2cc(S(=O)(=O)NC(C)(C)C)cn2CC(=O)N2CCCCC2)n1`, the RP-LC retention time came to 926 s. `Cc1noc2ncnc(N3CCC(C(=O)NCCCN4CCCCC4C)CC3)c12` (stereo unspecified): the RP-LC retention time is 587 s. As for `CCn1c(=O)c(N2CCCC(C(=O)NCc3cc(Br)ccc3OC)C2)nc2ccccc21` (stereo unspecified), the figure is 1140 s; as for `Cc1cc(NS(=O)(=O)c2cc(-c3[nH]ncc3C(=O)N3CCOCC3)oc2C)ccc1F`, 691 s. In the case of `CCN1CCCn2cc(S(=O)(=O)N3CCOCC3)cc2C1=O` it was 614 s; in that of `COc1ccc(-c2nc3cnccn3c2Nc2cccc(C(=O)O)c2)cc1`, 894 s. As to `O=C(Nc1cccc(Br)c1)C1CCCN(c2ncc(-c3cccc(F)c3)cn2)C1` (stereo unspecified), the RP-LC retention time is 1260 s.

In turn, `CCOc1ccc(NC(=O)c2cc(S(=O)(=O)N3CCCC(C)C3)cn2C)cc1` (stereo unspecified) had an RP-LC retention time of 1080 s. In the case of `O=C(c1cc(C2CC2)[nH]n1)N1CCCCC1` it was 661 s; in that of `O=C1CC(C(=O)N2CCN(Cc3ccc4c(c3)OCO4)CC2)CN1CCc1c[nH]c2ccc(F)cc12` (stereo unspecified), 649 s; in that of `Cc1ccc2[nH]cc(CCN3CC(C(=O)Nc4cccc(Br)c4)CC3=O)c2c1` (stereo unspecified), 911 s. For `CN(C)C(=O)c1ccc2c(c1)nc(CN1CCN(C(=O)c3ccccc3)CC1)n2C`, the RP-LC retention time was 597 s. In turn, `COc1ccc(-c2nc(C)cc3nn(CC(=O)Nc4ccc(C)c(C)c4)c(=O)n23)cc1` returned an RP-LC retention time of 895 s. Compound `CCCn1cc(-c2ccncc2)cc1C(=O)NC1CCCCC1` had an RP-LC retention time of 685 s. As for `CCS(=O)(=O)N1CCCc2cc(C(=O)Nc3ccc4c(c3)OCCO4)ccc21`, the figure is 858 s; as for `CC(C)CC(=O)Nc1ccc(OCc2cc(C(=O)NC3CCCC3)no2)cc1`, 890 s.

`O=C(COc1ccccc1)N1[C@H]2CC[C@@H]1c1cnc(-c3ccccc3)nc1C2` yielded an RP-LC retention time of 952 s. In the case of `COc1cc(NC(=O)CN2C(=O)C(C)(C)c3ccccc32)cc(OC)c1OC` it was 784 s. On to `CCC(=O)c1ccc(OCC(O)CN(CC)Cc2ccccc2)cc1` (stereo unspecified), for which the RP-LC retention time was 566 s.

Regarding `NC(=O)C1CCN(C(=O)Cn2c(-c3cccs3)cc3ccccc32)CC1`, the RP-LC retention time was 744 s. As for `CCn1cc(S(=O)(=O)Nc2ccc(C)c(F)c2)c2cccnc21`, the figure is 799 s. As to `COc1cccc(Cn2nnc(C(=O)O)c2C)c1`, the RP-LC retention time turned out to be 666 s. For `O=C(Cc1csc(NC(=O)C2CCCC2)n1)NC1CCN(Cc2ccccc2)CC1`, the RP-LC retention time came out at 569 s.

Consider `O=C(Cc1c[nH]c2ncccc12)NCc1ccc(C(F)(F)F)cc1`, for which the RP-LC retention time was 677 s. In the case of `CN(CC1CCOC1)C(=O)Cc1cccc(Cl)c1` (stereo unspecified) it was 734 s; in that of `N#Cc1ccc(-c2nc(-c3ccc4c(c3)ncn4CCN3CCOCC3)no2)cc1`, 624 s.

Compound `Cc1ccc(F)cc1NC(=O)Cn1nc(N2CCC(C)CC2)c2ccccc2c1=O` showed an RP-LC retention time of 1180 s.

`CN[C@@H]1C[C@@H](c2ccc(Cl)c(Cl)c2)c2ccccc21` yielded an RP-LC retention time of 824 s. `CCn1nc(C)c(CCNC(=O)C2CCCN(C(=O)c3[nH]c(C)cc3C)C2)c1C` (stereo unspecified) displayed an RP-LC retention time of 630 s. In turn, `Cc1ccccc1Oc1nccnc1N1CCC(C(=O)NCCC2=CCCCC2)CC1` showed an RP-LC retention time of 1110 s.

On to `O=C(Cn1cnc2c(sc3nc(-c4ccccc4)ccc32)c1=O)Nc1cc(F)ccc1F`, for which the RP-LC retention time was determined as 1040 s. In the case of `CC(C)c1ccc(-c2csc(NC(=O)c3cccc(Cl)c3)n2)cc1` it was 1300 s; in that of `O=C(NCc1cccs1)C1CCCN(C(=O)c2cc(-c3ccccn3)n[nH]2)C1` (stereo unspecified), 641 s; in that of `O=C(Cn1nc2n(c1=O)CCCCC2)Nc1ccc(Br)cc1`, 726 s. As for `CCOC(=O)c1noc2ncnc(N(CCN(C)C)Cc3ccccc3)c12`, the figure is 656 s; as for `CCCn1ccc2sc(C)c(C(=O)NCc3ccc(C)cc3)c2c1=O`, 948 s.

In the case of `COC(=O)c1cc2c([nH]c1=O)CC(c1ccc(OC)cc1OC)CC2=O` (stereo unspecified), the RP-LC retention time was determined as 699 s. In the case of `O=C(NCCC1CCN(C(=O)Nc2cc(F)cc(F)c2)CC1)c1ccoc1` it was 798 s; in that of `O=C(CCc1nc(-c2ccc(N3CCCC3)cc2)no1)NCCCN1CCOCC1`, 655 s; in that of `Cc1nc(-c2csc(S(=O)(=O)N3CCCC(C(=O)Nc4ccc5c(c4)OCCO5)C3)c2)no1` (stereo unspecified), 880 s. `COc1ccc(OCc2noc(CNC(=O)c3cccnc3)n2)cc1` returned an RP-LC retention time of 749 s.

`COC(=O)c1ccc(Cn2cnc3nc4c(cc3c2=O)CCCC4)cc1` returned an RP-LC retention time of 767 s. On to `COc1ccc(-c2noc(C3CCCN3C(=O)Nc3cc(C)ccc3OC)n2)cc1` (stereo unspecified), for which the RP-LC retention time turned out to be 859 s. As to `O=C(c1ccc(CS(=O)(=O)c2c(Cl)cccc2Cl)o1)N1CCN(c2ccccn2)CC1`, the RP-LC retention time is 634 s. In the case of `CC(C)Cn1c(=O)c(N2CCN(C(=O)c3ccco3)CC2)nc2ccncc21` it was 555 s; in that of `CCC(=O)N1CC(=O)Nc2ccc(Br)cc2C1c1ccccc1` (stereo unspecified), 749 s; in that of `COc1ccc(CCC(=O)NCC2CCN(C(=O)NC(C)(C)C)CC2)cc1`, 687 s.

Compound `CCn1ccc(C(=O)Nc2cnc(N3CCCCC3)nc2)n1` had an RP-LC retention time of 778 s. As for `CCOCC(=O)N1CC(F)(F)C[C@H]1c1nc(C(=O)NC)no1`, the figure is 626 s; as for `COc1ccc(NC(=O)Nc2cc(-c3cn4cccnc4n3)ccc2C)cc1`, 590 s. `COc1ccc(CNC(=O)C2(C)CCN(S(=O)(=O)c3c(C)cc(C)cc3C)CC2)cc1` gave an RP-LC retention time of 912 s.

`CCn1cc(CC(=O)NC(C)C)c2cccnc21` displayed an RP-LC retention time of 595 s. In turn, `COC(=O)COC(=O)c1cn(-c2ccc(OC)cc2)c(=O)c2ccccc12` had an RP-LC retention time of 924 s. In turn, `O=C(NCc1ccc(-n2ccnc2)cc1)c1ccc(F)c(F)c1` showed an RP-LC retention time of 625 s. For `Cc1csc(NC(=O)C2CC(=O)N(c3n[nH]c4ccccc34)C2)n1` (stereo unspecified), the RP-LC retention time worked out at 665 s. For `COc1cccc(CNC(=O)C2CCCN(c3nnc4ccc(Cl)cn34)C2)c1` (stereo unspecified), the RP-LC retention time is 756 s. Regarding `CCn1nc(C)c(CNC(=O)Nc2cc(OC)c(OC)c(OC)c2)c1C`, the RP-LC retention time came out at 615 s. In the case of `CCC(C)NC(=O)C1CCCN(c2ccc(-c3ccc(C)c(C)c3)nn2)C1` (stereo unspecified) it was 716 s; in that of `Cc1ccc(-c2nc(CN3CCN(C(=O)NC(C)C)CC3)c(C)o2)cc1`, 592 s. As for `CC(C)(C)c1cc(Br)ccc1OCC(=O)Nc1ncn[nH]1`, the figure is 797 s; as for `O=C(NCc1c(F)cccc1F)c1csc(Nc2ncccn2)n1`, 695 s; as for `Cc1ccc2[nH]cc(CCNC(=O)CSCc3nnc(C(=O)Nc4ccc(F)cc4)s3)c2c1`, 918 s. The compound `O=C(NC1CC1)C1CCCN(C(=O)c2cc(-c3ccncc3)n[nH]2)C1` (stereo unspecified) yielded an RP-LC retention time of 538 s.

The compound `COc1ccccc1N1CCNCC1` had an RP-LC retention time of 627 s. Take `COC(=O)c1cc(C)nc2c1c(=O)n(Cc1cccc(C#N)c1)c(=O)n2C`: the RP-LC retention time was 952 s. As for `CC(C(=O)N1CCOCC1)C1CCN(C(=O)c2ccc3nc(-c4ccccc4)oc3c2)CC1` (stereo unspecified), the figure is 718 s; as for `CCOC(=O)c1cc(-c2cccc(OC)c2OC)no1`, 896 s; as for `O=c1ccc(-c2cccc(Cl)c2)nn1CCc1nc(-c2ccc(F)cc2)no1`, 1060 s. In the case of `Cc1cc(NC(=O)c2cccc(N3C(=O)CCC3=O)c2)n(-c2nc3ccc(F)cc3s2)n1` it was 706 s; in that of `CC(C)c1ccc(-n2ccnc(NC(=O)Nc3cccc(Cl)c3)c2=O)cc1`, 1240 s; in that of `COc1ccc(-n2cc(C(=O)OCC(=O)OC(C)C)c3ccccc3c2=O)cc1`, 1060 s.

Source of the values: the METLIN SMRT retention time set (Domingo-Almenara et al. 2019).
